Assay results: the supplement of paper PMC10920090

Key:
MDA-MB-231 [1] = test: drug sensitivity score (DSS), cell viability CellTiter-Glo; higher = more sensitive; extreme values may be limits of the assay; details: 72 h
MDA-MB-231 [2] = test: drug sensitivity score (DSS), cytotoxicity CellTox Green; higher = more cytotoxic; extreme values may be limits of the assay; details: 72 h
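Throughout, for drug sensitivity score (DSS), cytotoxicity CellTox Green: DSS summarises each dose–response curve by combining IC50, EC50, maximal inhibition and efficacy across drug concentrations.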

Structure (SMILES)	drug sensitivity score (MDA-MB-231 [1]; shRNA: shPPFIA1_1)	drug sensitivity score (MDA-MB-231 [1]; shRNA: shScramble)	drug sensitivity score (MDA-MB-231 [2]; shRNA: shPPFIA1_1)	drug sensitivity score (MDA-MB-231 [2]; shRNA: shScramble)
O=NN(CCCl)C(=O)NC1CCCCC1 [Lomustine]	0 DSS	0 DSS	0 DSS	0 DSS
NC(=O)N1CCC(CC(=O)N2CCC([C@H]3c4ncc(Br)cc4CCc4cc(Cl)cc(Br)c43)CC2)CC1 [Lonafarnib]	2.4 DSS	3.1 DSS	0 DSS	0 DSS
Cc1c(F)cc(C(=O)NC2CC2)cc1-c1ccc(C(=O)NCC(C)(C)C)cn1 [Losmapimod]	1.7 DSS	0 DSS	0 DSS	0 DSS
CC[C@H](C)C(=O)O[C@H]1C[C@@H](C)C=C2C=C[C@H](C)[C@H](CC[C@@H]3C[C@@H](O)CC(=O)O3)[C@H]21 [Lovastatin]	0 DSS	0 DSS	0 DSS	0 DSS
CNC(=O)c1cccc2cc(Oc3ccnc4cc(OCC5(N)CC5)c(OC)cc34)ccc12 [Lucitanib]	0 DSS	0.7 DSS	0.3 DSS	1.2 DSS
CCNC(=O)c1noc(-c2cc(C(C)C)c(O)cc2O)c1-c1ccc(CN2CCOCC2)cc1 [Luminespib]	9.5 DSS	12.2 DSS	0 DSS	2 DSS
C=CCn1c(=O)c2cnc(Nc3ccc(N4CCN(C)CC4)cc3)nc2n1-c1cccc(C(C)(C)O)n1 [MK1775]	5.1 DSS	7.5 DSS	9.4 DSS	7.6 DSS
O=C(O)CC[C@H]1CC[C@@](c2cc(F)ccc2F)(S(=O)(=O)c2ccc(Cl)cc2)CC1 [MK-0752]	0 DSS	0.2 DSS	0 DSS	0 DSS
NC1(c2ccc(-c3nc4ccn5c(=O)[nH]nc5c4cc3-c3ccccc3)cc2)CCC1 [MK-2206]	6.5 DSS	6.8 DSS	0 DSS	0 DSS
CN(C[C@@H]1COCCO1)S(=O)(=O)Nc1ccc2ccc3ncc(-c4cnn(C)c4)cc3c(=O)c2c1 [MK-2461]	0 DSS	3.6 DSS	0 DSS	0 DSS
O=C(c1cccc(Cl)c1F)N1CCN(Cc2cccc(Nc3nccs3)n2)CC1 [MK-8745]	0.9 DSS	0.3 DSS	0.5 DSS	0.3 DSS
Cn1cc(-c2cnn3c(N)c(Br)c([C@@H]4CCCNC4)nc23)cn1 [MK-8776]	0 DSS	2.9 DSS	0 DSS	0 DSS
Cc1cnc(-c2ccccc2C(C)C)nc1NCc1ccc(-n2ccnn2)cc1 [ML323]	0 DSS	1.7 DSS	0 DSS	0 DSS
CC(C)n1nc(-c2ccc3oc(N)nc3c2)c2c(N)ncnc21 [MLN-0128]	0.2 DSS	5 DSS	0 DSS	0 DSS
O=C(O)c1ccc(Nc2ncc3c(n2)-c2ccc(Cl)cc2C(c2c(F)cccc2F)=NC3)cc1 [MLN-8054]	0.1 DSS	2.2 DSS	0 DSS	0 DSS
O=C(Nc1cccc(NC(=O)c2cccc(O)c2O)c1)c1cccc(O)c1O [MST-312]	8.6 DSS	7.6 DSS	0 DSS	0 DSS
CNC(=O)[C@@H](NC(=O)[C@H](CC(C)C)[C@H](O)C(=O)NO)C(C)(C)C [Marimastat]	0.2 DSS	0 DSS	0 DSS	0 DSS
Cc1ccc(NC(=O)c2ccc(CN3CCN(C)CC3)cc2)cc1Nc1nc(-c2cccnc2)cs1 [Masitinib]	0.2 DSS	2.9 DSS	0.2 DSS	0.1 DSS
CC(=O)O[C@]1(C(C)=O)CC[C@H]2[C@@H]3C=C(C)C4=CC(=O)CC[C@]4(C)[C@H]3CC[C@@]21C [Megestrol acetate]	0 DSS	0 DSS	0 DSS	0 DSS
N[C@@H](Cc1ccc(N(CCCl)CCCl)cc1)C(=O)O [Melphalan]	0 DSS	0.4 DSS	0 DSS	0 DSS
CCN(CC)CCCC(C)Nc1c2ccc(Cl)cc2nc2ccc(OC)cc12 (stereo not drawn) [Mepacrine]	18.6 DSS	21.1 DSS	18.5 DSS	18.6 DSS
S=c1[nH]cnc2nc[nH]c12 [Mercaptopurine]	5.1 DSS	12 DSS	0 DSS	0 DSS
Cc1ccc(C(=O)Nc2ccc(Oc3cc4cnn(C)c4cc3-c3cn[nH]c3)c(F)c2)c(=O)n1-c1ccc(F)cc1 [Merestinib]	9 DSS	0 DSS	0 DSS	0 DSS
CN(C)C(=N)NC(=N)N [Metformin]	0 DSS	0 DSS	0 DSS	0 DSS

Structure (SMILES)	drug sensitivity score (MDA-MB-231 [1]; shRNA: shPPFIA1_1)	drug sensitivity score (MDA-MB-231 [1]; shRNA: shScramble)	drug sensitivity score (MDA-MB-231 [2]; shRNA: shPPFIA1_1)	drug sensitivity score (MDA-MB-231 [2]; shRNA: shScramble)
CN(Cc1cnc2nc(N)nc(N)c2n1)c1ccc(C(=O)N[C@@H](CCC(=O)O)C(=O)O)cc1 [Methotrexate]	2.8 DSS	4 DSS	0 DSS	0 DSS
C[C@H]1C[C@@H]2[C@H]([C@@H](O)C[C@@]3(C)[C@H]2CC[C@]3(O)C(=O)CO)[C@@]2(C)C=CC(=O)C=C12 [Methylprednisolone]	0 DSS	0 DSS	0 DSS	0 DSS
CO[C@@H]1[C@H](N(C)C(=O)c2ccccc2)C[C@H]2O[C@]1(C)n1c3ccccc3c3c4c(c5c6ccccc6n2c5c31)C(=O)NC4 [Midostaurin]	0 DSS	3.5 DSS	0 DSS	0.1 DSS
CNC(=O)c1nn(C)c2c1C(C)(C)Cc1cnc(Nc3ccc(N4CCN(C)CC4)cc3)nc1-2 [Milciclib]	0.9 DSS	5.1 DSS	0.3 DSS	0 DSS
CO[C@@]12[C@H](COC(N)=O)C3=C(C(=O)C(C)=C(N)C3=O)N1C[C@@H]1N[C@@H]12 [Mitomycin C]	0 DSS	0 DSS	0 DSS	0 DSS
Clc1ccc(C(c2ccccc2Cl)C(Cl)Cl)cc1 (stereo not drawn) [Mitotane]	0 DSS	0 DSS	0 DSS	0 DSS
O=C1c2c(O)ccc(O)c2C(=O)c2c(NCCNCCO)ccc(NCCNCCO)c21 [Mitoxantrone]	0 DSS	3.2 DSS	0 DSS	0 DSS
Nc1ccccc1NC(=O)c1ccc(CNc2nccc(-c3cccnc3)n2)cc1 [Mocetinostat]	3.6 DSS	8.3 DSS	10.5 DSS	4.8 DSS
N#CCNC(=O)c1ccc(-c2ccnc(Nc3ccc(N4CCOCC4)cc3)n2)cc1 [Momelotinib]	0 DSS	0 DSS	0 DSS	0 DSS
CC1(C)CNc2cc(NC(=O)c3cccnc3NCc3ccncc3)ccc21 [Motesanib]	0 DSS	0 DSS	0 DSS	0.3 DSS
FC(F)(F)c1ccc(/C=C/c2nc(COc3ccc(CCCCn4ccnn4)cc3)co2)cc1 [Mubritinib]	2.1 DSS	2 DSS	0 DSS	0 DSS
Cc1cc(OCc2nnc(SC3CCCC3)n2-c2cccnc2)ccc1-c1ccc(S(C)(=O)=O)cc1 [NMS-873]	6.8 DSS	14.7 DSS	7.6 DSS	7.4 DSS
CCN1CCN(Cc2ccc(-c3cc4c(N[C@H](C)c5ccccc5)ncnc4[nH]3)cc2)CC1 [NVP-AEE788]	0.4 DSS	0.8 DSS	0 DSS	0 DSS
CCN1CCN(c2ccc(Nc3cc(N(C)C(=O)Nc4c(Cl)c(OC)cc(OC)c4Cl)ncn3)cc2)CC1 [NVP-BGJ398]	0 DSS	0 DSS	0 DSS	0 DSS
CNC(=O)c1ccc(-c2cnc3ncc(Cc4ccc5ncccc5c4)n3n2)cc1F [NVP-INC280]	4.5 DSS	10.5 DSS	0 DSS	0 DSS
CC1(C)CCC(c2ccc(Cl)cc2)=C(CN2CCN(c3ccc(C(=O)NS(=O)(=O)c4ccc(N[C@H](CCN5CCOCC5)CSc5ccccc5)c(S(=O)(=O)C(F)(F)F)c4)cc3)CC2)C1 [Navitoclax]	4.4 DSS	4.4 DSS	15.2 DSS	12.4 DSS
COc1nc(N)nc2c1ncn2[C@@H]1O[C@H](CO)[C@@H](O)[C@@H]1O [Nelarabine]	0 DSS	0 DSS	0 DSS	0 DSS
CCOc1cc2ncc(C#N)c(Nc3ccc(OCc4ccccn4)c(Cl)c3)c2cc1NC(=O)/C=C/CN(C)C [Neratinib]	6.3 DSS	8.3 DSS	0.2 DSS	0 DSS
Cc1cn(-c2cc(NC(=O)c3ccc(C)c(Nc4nccc(-c5cccnc5)n4)c3)cc(C(F)(F)F)c2)cn1 [Nilotinib]	0 DSS	3.8 DSS	4.5 DSS	0.2 DSS
CC1(C)NC(=O)N(c2ccc([N+](=O)[O-])c(C(F)(F)F)c2)C1=O [Nilutamide]	0 DSS	0 DSS	0 DSS	0 DSS
COC(=O)c1ccc2c(c1)NC(=O)/C2=C(\Nc1ccc(N(C)C(=O)CN2CCN(C)CC2)cc1)c1ccccc1 [Nintedanib]	0 DSS	8.1 DSS	1.1 DSS	6.7 DSS
NC(=O)c1cccc2cn(-c3ccc([C@@H]4CCCNC4)cc3)nc12 [Niraparib]	2.8 DSS	1.9 DSS	0 DSS	0 DSS
COc1ccc(C2=N[C@@H](c3ccc(Cl)cc3)[C@@H](c3ccc(Cl)cc3)N2C(=O)N2CCNC(=O)C2)c(OC(C)C)c1 [Nutlin-3]	0 DSS	0 DSS	0 DSS	0 DSS
